# Key:
# Type in all cases: functional
# Staphylococcus aureus [1] = assay: Antibacterial activity against methicillin-resistant Staphylococcus aureus ATCC 33591 by agar method
# Staphylococcus aureus [2] = assay: Antibacterial activity against methicillin-sensitive Staphylococcus aureus ATCC 29213 by agar method
# Escherichia coli [3] = assay: Antibacterial activity against ESBLs positive Escherichia coli ATCC 35218 by agar method
# Escherichia coli [4] = assay: Antibacterial activity against NDM-1 positive Escherichia coli ATCC 2469 by agar method
# Enterococcus faecalis [5] = assay: Antibacterial activity against Vancomycin-sensitive Enterococcus faecalis ATCC 29212 by agar method
# [6] = tested on: Staphylococcus epidermidis; assay: Antibacterial activity against methicillin-sensitive Staphylococcus epidermidis ATCC 12228 by agar method
# Acinetobacter baumannii = assay: Antibacterial activity against carbapenem-resistant Acinetobacter baumannii 16-33 by agar method
# Escherichia coli [7] = assay: Antibacterial activity against ESBLs negative Escherichia coli ATCC 25922 by agar method
# [8] = tested on: Staphylococcus epidermidis; assay: Antibacterial activity against methicillin-resistant Staphylococcus epidermidis 16-5 by agar method
# Enterococcus faecalis [9] = assay: Antibacterial activity against vancomycin-resistant Enterococcus faecalis ATCC 51299 by agar method
SMILES,MIC (Staphylococcus aureus [1]) [µg/mL],MIC (Staphylococcus aureus [2]) [µg/mL],MIC (Escherichia coli [3]) [µg/mL],MIC (Escherichia coli [4]) [µg/mL],MIC (Enterococcus faecalis [5]) [µg/mL],MIC [6] [µg/mL],MIC (Acinetobacter baumannii) [µg/mL],MIC (Escherichia coli [7]) [µg/mL],MIC [8] [µg/mL],MIC (Enterococcus faecalis [9]) [µg/mL]
O=C(/C=C/c1ccc2ccccc2n1)c1ccncc1,32,32,> 32,> 32,32,32,> 32,> 32,32,32
O=C(/C=C/c1cnc2ccccc2c1)c1ccncc1,8,8,> 128,> 128,32,8,128,> 128,8,16
O=C(/C=C/c1cnc2ccccc2c1)c1cccnc1,32,16,> 128,> 128,32,16,128,> 128,32,32
O=C(/C=C/c1ccc2ccccc2c1)c1cccnc1,> 128,> 128,> 128,> 128,> 128,> 128,> 128,> 128,> 128,> 128
O=C(/C=C/c1cccnc1)c1ccc2ccccc2c1,8,8,> 128,> 128,> 128,4,> 128,> 128,16,> 128
O=C(/C=C/c1ccncc1)c1ccc2ccccc2c1,4,8,> 128,> 128,> 128,4,> 128,> 128,8,> 128
O=C(/C=C/c1ccc2ccccc2n1)c1ccc2c(c1)OCO2,> 128,> 128,> 128,> 128,> 128,> 128,> 128,> 128,> 128,> 128
O=C(/C=C/c1ccc2ccc(C(F)(F)F)cc2n1)c1ccc(O)c(O)c1,32,32,> 128,> 128,> 128,16,> 128,> 128,16,> 128
COCOc1ccc(C(=O)/C=C/c2ccc3ccccc3n2)cc1OCOC,8,8,> 128,> 128,> 128,4,> 128,> 128,8,> 128
O=C(/C=C/c1ccc2ncccc2c1)c1ccccn1,8,8,> 128,> 128,32,8,128,> 128,8,32
O=C(/C=C/c1ccc2ccc(C(F)(F)F)cc2n1)c1ccccc1,> 128,> 128,> 128,> 128,> 128,> 128,> 128,> 128,> 128,> 128
O=C(/C=C/c1cccnc1)c1ccc2ccc(C(F)(F)F)cc2n1,32,> 32,> 32,> 32,> 32,> 32,> 32,> 32,> 32,> 32
O=C(/C=C/c1ccc2ccccc2c1)c1ccccn1,> 128,> 128,> 128,> 128,> 128,> 128,> 128,> 128,> 128,> 128
O=C(/C=C/c1ccc2ccccc2c1)c1ccncc1,> 128,> 128,> 128,> 128,> 128,> 128,> 128,> 128,> 128,> 128
O=C(/C=C/c1ccc2ncccc2c1)c1cccnc1,16,16,> 128,> 128,32,8,128,> 128,8,32
O=C(/C=C/c1ccc2ccc(C(F)(F)F)cc2n1)c1ccc2c(c1)OCO2,> 128,> 128,> 128,> 128,> 128,> 128,> 128,> 128,> 128,> 128
C[n+]1cccc(C(=O)/C=C/c2ccc3ccccc3c2)c1.[I-],> 128,> 128,> 128,> 128,> 128,> 128,> 128,> 128,> 128,> 128
O=C(/C=C/c1ccncc1)c1ccc2ccc(C(F)(F)F)cc2n1,16,> 32,> 32,> 32,> 32,> 32,> 32,> 32,> 32,> 32
O=C(/C=C/c1ccc2ncccc2c1)c1ccncc1,8,8,> 128,> 128,32,16,128,> 128,16,32
O=C(/C=C/c1cnc2ccccc2c1)c1ccccn1,8,8,> 128,> 128,32,8,128,> 128,8,32
O=C(/C=C/c1ccc2ccccc2n1)c1ccc(O)c(O)c1,32,32,> 64,> 64,> 64,16,> 64,> 64,32,> 64
C[n+]1cccc(C(=O)/C=C/c2ccc3ccc(C(F)(F)F)cc3n2)c1.[I-],32,64,> 128,> 128,128,64,> 128,> 128,64,128
COCOc1ccc(C(=O)/C=C/c2ccc3ccc(C(F)(F)F)cc3n2)cc1OCOC,> 64,> 64,> 64,> 64,> 64,> 64,> 64,> 64,> 64,> 64
C[C@H]1COc2c(N3CCN(C)CC3)c(F)cc3c(=O)c(C(=O)O)cn1c23.C[C@H]1COc2c(N3CCN(C)CC3)c(F)cc3c(=O)c(C(=O)O)cn1c23.O [LEVOFLOXACIN],0.12,0.12,–,16,1,0.12,2,–,8,0.5
